How the values were obtained:
Assay in all cases: Kinase panel study
Assay type in all cases: biochemical
Settings in all cases: read-out: Percentage of inhibition; for inhibition at 1 µM: 1000nM; for inhibition at 10 µM: 10000nM
[1] = biological target: T1, CDC42 BPB (MRCKB) (Homo sapiens, UniProt Q9Y5S2)
T1 construct: purchased Thermo Fisher Scientific
Summary of the method: (§1)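 ZLyte/Adapta biochemical kinase assays, standard operating procedures; % inhibition at 1 µM or 10 µM test compound; IC50 determined in panel.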

[2] = biological target: T2, EGFR (ErbB1) L861Q (Homo sapiens, UniProt P00533, L861Q)
T2 construct: purchased Thermo Fisher Scientific
Summary of the method: as §1

[3] = biological target: T3, SRPK2 (Homo sapiens, UniProt P78362)
T3 construct: purchased Thermo Fisher Scientific
Summary of the method: as §1

[4] = biological target: T4, PRKX (Homo sapiens, UniProt P51817)
T4 construct: purchased Thermo Fisher Scientific
T4 sequence (P51817 1-358): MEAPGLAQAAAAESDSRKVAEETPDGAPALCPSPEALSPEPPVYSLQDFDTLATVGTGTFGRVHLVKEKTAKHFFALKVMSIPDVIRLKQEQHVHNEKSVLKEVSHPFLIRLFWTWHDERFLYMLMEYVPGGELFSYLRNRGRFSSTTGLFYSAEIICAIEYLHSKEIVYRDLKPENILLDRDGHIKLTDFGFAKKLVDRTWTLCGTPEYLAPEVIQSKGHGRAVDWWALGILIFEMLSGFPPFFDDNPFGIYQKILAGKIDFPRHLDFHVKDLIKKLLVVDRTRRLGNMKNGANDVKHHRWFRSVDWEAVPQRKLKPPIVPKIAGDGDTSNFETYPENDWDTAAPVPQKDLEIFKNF
Summary of the method: as §1

[5] = biological target: T5, CSNK2A2 (CK2 alpha 2) (Homo sapiens, UniProt P19784)
T5 construct: purchased Thermo Fisher Scientific
Summary of the method: as §1

[6] = biological target: T6, GSK3B (GSK3 beta) (Homo sapiens, UniProt P49841)
T6 construct: purchased Thermo Fisher Scientific
Summary of the method: as §1

[7] = biological target: T7, PRKCB1 (PKC beta I) (Homo sapiens, UniProt P05771)
T7 construct: purchased Thermo Fisher Scientific
Summary of the method: as §1

[8] = biological target: T8, PRKG2 (PKG2) (Homo sapiens, UniProt Q13237)
T8 construct: purchased Thermo Fisher Scientific
T8 sequence (Q13237 1-762): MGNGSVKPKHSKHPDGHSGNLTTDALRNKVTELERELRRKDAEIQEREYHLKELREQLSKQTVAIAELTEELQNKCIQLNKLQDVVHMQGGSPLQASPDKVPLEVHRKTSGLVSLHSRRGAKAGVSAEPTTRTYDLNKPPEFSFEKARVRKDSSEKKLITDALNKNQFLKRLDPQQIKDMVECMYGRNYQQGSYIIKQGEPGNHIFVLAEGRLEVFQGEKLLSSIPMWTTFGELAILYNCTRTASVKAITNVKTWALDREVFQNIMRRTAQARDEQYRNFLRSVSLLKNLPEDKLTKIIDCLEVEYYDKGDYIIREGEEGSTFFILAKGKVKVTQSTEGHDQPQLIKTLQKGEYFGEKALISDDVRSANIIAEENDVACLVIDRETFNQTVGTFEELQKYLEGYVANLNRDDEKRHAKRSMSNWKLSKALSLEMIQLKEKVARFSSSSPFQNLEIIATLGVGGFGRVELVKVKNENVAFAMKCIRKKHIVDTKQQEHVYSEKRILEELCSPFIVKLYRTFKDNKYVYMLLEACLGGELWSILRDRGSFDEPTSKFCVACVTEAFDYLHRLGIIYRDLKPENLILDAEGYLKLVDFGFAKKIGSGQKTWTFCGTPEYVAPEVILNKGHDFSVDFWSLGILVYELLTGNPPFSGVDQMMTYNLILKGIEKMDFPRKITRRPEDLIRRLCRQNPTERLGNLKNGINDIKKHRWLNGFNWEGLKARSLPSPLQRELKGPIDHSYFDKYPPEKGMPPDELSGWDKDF
Summary of the method: as §1

[9] = biological target: T9, YES1 (Homo sapiens, UniProt P07947)
T9 construct: purchased Thermo Fisher Scientific
Summary of the method: as §1

[10] = biological target: T10, CAMK4 (CaMKIV) (Homo sapiens, UniProt Q16566)
T10 construct: purchased Thermo Fisher Scientific
Summary of the method: as §1

T2 sequence (P00533 25-1210 L861Q): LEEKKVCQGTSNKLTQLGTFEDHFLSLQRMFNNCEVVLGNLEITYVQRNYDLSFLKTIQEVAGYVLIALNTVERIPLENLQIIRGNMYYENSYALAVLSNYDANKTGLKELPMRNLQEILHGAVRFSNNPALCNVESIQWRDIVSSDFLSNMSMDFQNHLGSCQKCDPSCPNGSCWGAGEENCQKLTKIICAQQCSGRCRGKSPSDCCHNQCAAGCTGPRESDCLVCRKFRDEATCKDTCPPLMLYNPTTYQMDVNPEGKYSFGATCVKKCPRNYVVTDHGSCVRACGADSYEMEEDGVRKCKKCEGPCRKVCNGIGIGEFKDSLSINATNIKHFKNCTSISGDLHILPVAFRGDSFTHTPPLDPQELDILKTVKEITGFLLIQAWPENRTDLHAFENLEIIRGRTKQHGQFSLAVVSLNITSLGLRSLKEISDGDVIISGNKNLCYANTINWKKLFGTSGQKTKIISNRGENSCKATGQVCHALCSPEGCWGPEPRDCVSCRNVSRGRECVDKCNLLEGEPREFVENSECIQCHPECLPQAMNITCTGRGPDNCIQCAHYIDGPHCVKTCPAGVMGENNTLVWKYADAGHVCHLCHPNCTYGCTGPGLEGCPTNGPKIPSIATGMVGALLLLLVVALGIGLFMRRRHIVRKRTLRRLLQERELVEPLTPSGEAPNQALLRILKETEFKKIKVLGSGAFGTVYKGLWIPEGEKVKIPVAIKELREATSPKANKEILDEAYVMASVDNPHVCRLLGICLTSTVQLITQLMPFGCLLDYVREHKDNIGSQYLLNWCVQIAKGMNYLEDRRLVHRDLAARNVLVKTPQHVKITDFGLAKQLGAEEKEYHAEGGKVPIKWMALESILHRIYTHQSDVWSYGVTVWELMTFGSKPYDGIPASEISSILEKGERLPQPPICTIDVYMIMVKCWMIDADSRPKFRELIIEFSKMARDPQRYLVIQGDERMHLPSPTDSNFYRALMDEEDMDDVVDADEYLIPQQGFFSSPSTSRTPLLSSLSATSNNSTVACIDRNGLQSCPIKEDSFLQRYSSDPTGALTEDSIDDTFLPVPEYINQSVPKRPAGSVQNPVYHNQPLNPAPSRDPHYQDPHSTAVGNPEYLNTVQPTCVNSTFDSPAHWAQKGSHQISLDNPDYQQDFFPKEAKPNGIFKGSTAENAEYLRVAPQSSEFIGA
T5 sequence (P19784 whole entry): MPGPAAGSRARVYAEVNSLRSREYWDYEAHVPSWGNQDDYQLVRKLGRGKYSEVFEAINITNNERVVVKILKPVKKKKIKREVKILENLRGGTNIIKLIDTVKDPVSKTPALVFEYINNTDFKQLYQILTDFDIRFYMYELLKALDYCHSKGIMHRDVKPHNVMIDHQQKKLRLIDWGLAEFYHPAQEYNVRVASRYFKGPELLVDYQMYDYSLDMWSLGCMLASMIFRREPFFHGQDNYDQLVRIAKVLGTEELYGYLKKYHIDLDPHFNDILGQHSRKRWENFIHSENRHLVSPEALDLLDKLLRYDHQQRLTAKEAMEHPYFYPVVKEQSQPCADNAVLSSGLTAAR
T6 sequence (P49841 whole entry): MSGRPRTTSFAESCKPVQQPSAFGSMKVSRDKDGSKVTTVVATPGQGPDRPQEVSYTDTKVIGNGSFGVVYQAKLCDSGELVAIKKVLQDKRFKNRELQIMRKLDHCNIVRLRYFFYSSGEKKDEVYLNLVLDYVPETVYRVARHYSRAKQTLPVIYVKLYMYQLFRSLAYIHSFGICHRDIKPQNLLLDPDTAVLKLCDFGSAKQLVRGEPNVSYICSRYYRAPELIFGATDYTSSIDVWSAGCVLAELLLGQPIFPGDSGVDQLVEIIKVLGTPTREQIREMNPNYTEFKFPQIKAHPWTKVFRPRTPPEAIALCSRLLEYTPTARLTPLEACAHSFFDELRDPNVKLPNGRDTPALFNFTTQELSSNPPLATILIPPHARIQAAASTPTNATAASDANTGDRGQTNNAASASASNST
T3 sequence (P78362 whole entry): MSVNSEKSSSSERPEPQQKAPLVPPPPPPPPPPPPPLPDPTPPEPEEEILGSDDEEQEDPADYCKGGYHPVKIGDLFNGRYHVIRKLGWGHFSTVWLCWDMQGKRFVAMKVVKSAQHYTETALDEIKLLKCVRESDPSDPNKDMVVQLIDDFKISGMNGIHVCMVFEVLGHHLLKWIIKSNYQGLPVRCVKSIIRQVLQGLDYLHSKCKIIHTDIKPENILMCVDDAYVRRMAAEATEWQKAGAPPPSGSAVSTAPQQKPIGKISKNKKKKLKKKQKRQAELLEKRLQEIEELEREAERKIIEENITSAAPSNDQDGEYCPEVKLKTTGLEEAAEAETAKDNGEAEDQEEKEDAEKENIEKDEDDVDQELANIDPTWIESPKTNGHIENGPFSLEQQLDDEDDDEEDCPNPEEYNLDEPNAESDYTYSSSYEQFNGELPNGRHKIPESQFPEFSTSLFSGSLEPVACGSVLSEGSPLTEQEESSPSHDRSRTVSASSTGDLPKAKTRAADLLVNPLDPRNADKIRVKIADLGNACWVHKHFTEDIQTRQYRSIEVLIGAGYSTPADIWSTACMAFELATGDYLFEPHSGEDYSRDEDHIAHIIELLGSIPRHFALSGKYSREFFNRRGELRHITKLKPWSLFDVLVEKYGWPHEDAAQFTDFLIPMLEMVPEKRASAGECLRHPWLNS
T9 sequence (P07947 whole entry): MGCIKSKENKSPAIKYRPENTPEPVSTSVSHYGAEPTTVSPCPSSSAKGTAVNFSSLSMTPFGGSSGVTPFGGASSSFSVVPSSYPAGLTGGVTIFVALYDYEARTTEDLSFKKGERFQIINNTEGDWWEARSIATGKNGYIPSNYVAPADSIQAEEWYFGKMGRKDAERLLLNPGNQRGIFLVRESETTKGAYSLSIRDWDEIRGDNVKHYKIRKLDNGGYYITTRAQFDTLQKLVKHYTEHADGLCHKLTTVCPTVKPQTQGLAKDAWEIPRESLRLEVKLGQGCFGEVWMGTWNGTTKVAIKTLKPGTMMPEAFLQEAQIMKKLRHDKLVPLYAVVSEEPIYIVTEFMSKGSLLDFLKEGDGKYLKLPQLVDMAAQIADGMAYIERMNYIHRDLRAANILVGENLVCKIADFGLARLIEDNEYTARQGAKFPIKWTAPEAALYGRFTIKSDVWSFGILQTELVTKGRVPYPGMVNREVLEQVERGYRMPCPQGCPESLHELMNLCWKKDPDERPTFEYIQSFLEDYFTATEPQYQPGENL
T7 sequence (P05771 whole entry): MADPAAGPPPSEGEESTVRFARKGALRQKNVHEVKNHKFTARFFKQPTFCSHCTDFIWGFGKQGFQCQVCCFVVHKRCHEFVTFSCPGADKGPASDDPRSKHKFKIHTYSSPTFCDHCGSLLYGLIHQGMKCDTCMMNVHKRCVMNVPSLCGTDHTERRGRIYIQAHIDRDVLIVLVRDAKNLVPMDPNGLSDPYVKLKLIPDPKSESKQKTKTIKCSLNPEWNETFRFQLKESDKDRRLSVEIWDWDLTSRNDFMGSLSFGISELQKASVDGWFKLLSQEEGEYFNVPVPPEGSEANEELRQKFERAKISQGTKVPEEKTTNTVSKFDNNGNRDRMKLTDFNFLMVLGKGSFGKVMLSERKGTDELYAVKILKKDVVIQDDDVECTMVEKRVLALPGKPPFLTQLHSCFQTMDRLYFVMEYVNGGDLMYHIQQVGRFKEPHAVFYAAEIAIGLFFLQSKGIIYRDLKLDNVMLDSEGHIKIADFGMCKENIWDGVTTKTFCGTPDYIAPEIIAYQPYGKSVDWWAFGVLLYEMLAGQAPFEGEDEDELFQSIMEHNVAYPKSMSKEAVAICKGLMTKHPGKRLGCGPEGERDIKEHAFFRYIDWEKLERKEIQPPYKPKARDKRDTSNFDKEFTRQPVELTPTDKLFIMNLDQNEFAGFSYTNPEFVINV

SMILES | inhibition at 1 µM [1] [%] | inhibition at 10 µM [1] [%] | inhibition at 1 µM [2] [%] | inhibition at 10 µM [2] [%] | inhibition at 1 µM [3] [%] | inhibition at 10 µM [3] [%] | inhibition at 1 µM [4] [%] | inhibition at 10 µM [4] [%] | inhibition at 1 µM [5] [%] | inhibition at 10 µM [5] [%] | inhibition at 1 µM [6] [%] | inhibition at 10 µM [6] [%] | inhibition at 1 µM [7] [%] | inhibition at 10 µM [7] [%] | inhibition at 1 µM [8] [%] | inhibition at 10 µM [8] [%] | inhibition at 1 µM [9] [%] | inhibition at 10 µM [9] [%] | inhibition at 1 µM [10] [%] | inhibition at 10 µM [10] [%]
COc1ccc2c(c1OC)c(=O)n1c3ccc(O)cc3c3ccnc2c31 [MW01, 5-Hydroxy-10,11-dimethoxy-9H-benzo[c]indolo[3,2,1-ij][1,5]naphthyridin-9-one] | 0 | 5 | -9 | 8 | -2 | 0 | 22 | 16 | 16 | 29 | 27 | 52 | 1 | -17 | 47 | 72 | 17 | 16 | -3 | 16
COc1ccc2cc3c(N)nn(C(=O)c4cccc(N(C)C)c4)c3nc2c1 [MW05, (3-Amino-7-methoxypyrazolo[3,4-b]quinolin-1-yl)-[3-(dimethylamino)phenyl]methanone] | 5 | -6 | -6 | -18 | 4 | 10 | 8 | -2 | 7 | 4 | 6 | 14 | 5 | -7 | 7 | 0 | 15 | 20 | 2 | -9
